The source made the active and inactive calls.
Columns and labels:
[1] = Luminescence Cell-Based Dose Retest to Confirm Inhibitors of Cancer Stem Cells. [Related pubchem assays (depositor defined):AID2717, AID2721]; type: functional; conditions: Homo sapiens
[2] = biological target: T1, Orexin/Hypocretin receptor type 1 (Homo sapiens, UniProt O43613); test: (§1) Fluorescence-based cell-based high throughput dose response assay for antagonists of the orexin 1 receptor (OX1R; HCRTR1). [Related pubchem assays (depositor defined):AID434989, AID435008, AID463079, AID485270, AID492963, AID492964, AID492965, AID493232, AID504717, AID504718]; type: functional
T1 sequence (O43613 whole entry): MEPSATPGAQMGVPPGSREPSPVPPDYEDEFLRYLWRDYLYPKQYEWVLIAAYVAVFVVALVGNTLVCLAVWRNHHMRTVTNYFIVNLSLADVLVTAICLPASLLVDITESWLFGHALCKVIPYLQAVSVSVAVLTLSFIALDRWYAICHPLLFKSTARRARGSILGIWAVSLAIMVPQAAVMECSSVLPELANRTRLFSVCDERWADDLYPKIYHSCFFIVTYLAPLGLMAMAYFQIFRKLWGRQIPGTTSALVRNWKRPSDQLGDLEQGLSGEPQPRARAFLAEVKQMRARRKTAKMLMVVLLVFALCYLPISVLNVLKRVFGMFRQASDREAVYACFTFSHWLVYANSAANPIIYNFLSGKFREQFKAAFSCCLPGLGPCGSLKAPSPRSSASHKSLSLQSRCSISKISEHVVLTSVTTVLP

[3] = (§2) Counterscreen for antagonists of the orexin 1 receptor (OX1R; HCRTR1): Fluorescence-based cell-based high throughput dose response assay to identify antagonists of the parental CHO cell line. [Related pubchem assays (depositor defined):AID434989, AID435008, AID463079, AID485270, AID492963, AID492964, AID492965, AID493232, AID504699, AID504701]; type: functional
CHO-K1 = test: as §2, with “Homogeneous time resolved fluorescence (HTRF)-based” for “Fluorescence-based”, “cell-based” for “cell-based high throughput”, “CHO-K1” for “CHO”; type: functional; conditions: Cricetulus griseus;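 note: potency for inhibition of ATP-stimulated IP1 production as antagonists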
Orexin receptor type 2 [4] = biological target: T2, Orexin receptor type 2 (Homo sapiens, UniProt O43614); test: Counterscreen assay for antagonists of the orexin 1 receptor (OX1R; HCRTR1): Fluorescence-based cell-based dose response assay for antagonists of the orexin 2 receptor (OX2R; HCRTR2), run by assay provider.; type: functional
T2 sequence (O43614 whole entry): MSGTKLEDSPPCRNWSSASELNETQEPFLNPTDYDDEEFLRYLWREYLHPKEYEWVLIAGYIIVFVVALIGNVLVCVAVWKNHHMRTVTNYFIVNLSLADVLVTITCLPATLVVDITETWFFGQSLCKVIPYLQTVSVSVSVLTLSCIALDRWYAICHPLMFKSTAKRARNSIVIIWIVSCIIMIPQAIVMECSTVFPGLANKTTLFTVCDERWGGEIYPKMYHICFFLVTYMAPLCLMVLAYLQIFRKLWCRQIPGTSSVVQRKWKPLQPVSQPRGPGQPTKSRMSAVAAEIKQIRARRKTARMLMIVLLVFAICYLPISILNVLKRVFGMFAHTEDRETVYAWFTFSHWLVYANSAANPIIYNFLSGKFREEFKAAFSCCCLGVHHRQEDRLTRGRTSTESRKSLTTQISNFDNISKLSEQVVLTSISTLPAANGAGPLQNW

Orexin receptor type 2 [5] = biological target: T2, Orexin receptor type 2; test: Counterscreen assay for antagonists of the orexin 1 receptor (OX1R; HCRTR1): Homogeneous Time Resolved Fluorescence (HTRF)-based cell-based dose response assay for antagonists of the orexin 2 receptor (OX2R; HCRTR2), run by assay provider.; type: functional
[6] = cytotoxicity in HMLE control line with eGFP shRNA, dose response, counter-screen for HMLE_sh_ECad selective toxicity project, cell-based, HMLE_sh_eGFP, luminescence (AID 463074); type: functional, Homo sapiens;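 note: HMLE human mammary epithelial cells expressing control shRNA against eGFP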
[7] = biological target: T1, Orexin/Hypocretin receptor type 1; test: as §1, with “Homogeneous Time Resolved Fluorescence (HTRF)-based” for “Fluorescence-based”; type: functional
[8] = test system: Streptococcus sp. 'group A'; test: growth inhibition of control SK(-) GAS strain, dose response, counter-screen for streptokinase expression inhibitor project, luminescence, kanamycin, BacTiterGlo, confirmation (AID 1900); type: functional, organism-based
Streptococcus = test: Group A Streptococcus viability loss, dose response, counter-screen for streptokinase expression inhibitor project, luminescence, BacTiterGlo (AID 1915); type: functional, organism-based;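 note: potency for reduction of bacterial viability or growth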
Streptokinase A = biological target: T3, Streptokinase A (Streptococcus pyogenes serotype M1, UniProt P10520); test: S. pyogenes streptokinase expression inhibitors, potency, dose response, plasminogen activation absorbance, OD405 (AID 1914); type: functional, Streptococcus pyogenes M1 GAS;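 note: secreted streptokinase activity via plasminogen activation per viability signal from cell pellet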
T3 sequence (P10520 whole entry): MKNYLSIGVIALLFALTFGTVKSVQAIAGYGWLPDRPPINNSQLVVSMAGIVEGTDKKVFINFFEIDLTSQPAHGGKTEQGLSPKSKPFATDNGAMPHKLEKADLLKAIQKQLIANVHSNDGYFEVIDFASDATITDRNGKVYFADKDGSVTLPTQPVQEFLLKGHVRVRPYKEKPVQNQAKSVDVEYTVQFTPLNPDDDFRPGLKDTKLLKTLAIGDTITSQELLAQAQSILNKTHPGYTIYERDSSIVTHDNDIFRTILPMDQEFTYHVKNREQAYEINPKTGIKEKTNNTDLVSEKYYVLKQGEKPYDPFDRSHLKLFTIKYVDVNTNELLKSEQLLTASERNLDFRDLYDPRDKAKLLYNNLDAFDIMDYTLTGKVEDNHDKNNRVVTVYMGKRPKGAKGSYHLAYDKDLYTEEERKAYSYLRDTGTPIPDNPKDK

[9] = biological target: Dual specificity protein kinase CLK1 (Homo sapiens, UniProt P49759); test: CLK1 kinase inhibitors, off-target check, dose response, selectivity assay for Dyrk1A inhibitor project, biochemical, cherry-picked samples (AID 588811)
Phospholipase D2 = Phospholipase D2 (Homo sapiens, UniProt O14939); test: PLD2 purified enzyme concentration response. [Related pubchem assays (depositor defined):AID588854]; type: functional
Phospholipase D1 = Phospholipase D1 (Homo sapiens, UniProt Q13393); test: PLD1 purified enzyme concentration response. [Related pubchem assays (depositor defined):AID588854]; type: functional
[10] = biological target: T4, Heat shock factor protein 1 (Mus musculus, UniProt P38532); test: inhibition of MG132-induced HSE-luciferase signal, confirmation, cell-based, NIH3T3, luminescence, dose retest (AID 2382); type: functional;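 note: NIH3T3 fibroblasts with HSF1-driven luciferase reporter stressed by proteasome inhibitor MG132; luminescence from HSF1-driven luciferase expression after 8 hours of MG132 stress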
T4 sequence (P38532 whole entry): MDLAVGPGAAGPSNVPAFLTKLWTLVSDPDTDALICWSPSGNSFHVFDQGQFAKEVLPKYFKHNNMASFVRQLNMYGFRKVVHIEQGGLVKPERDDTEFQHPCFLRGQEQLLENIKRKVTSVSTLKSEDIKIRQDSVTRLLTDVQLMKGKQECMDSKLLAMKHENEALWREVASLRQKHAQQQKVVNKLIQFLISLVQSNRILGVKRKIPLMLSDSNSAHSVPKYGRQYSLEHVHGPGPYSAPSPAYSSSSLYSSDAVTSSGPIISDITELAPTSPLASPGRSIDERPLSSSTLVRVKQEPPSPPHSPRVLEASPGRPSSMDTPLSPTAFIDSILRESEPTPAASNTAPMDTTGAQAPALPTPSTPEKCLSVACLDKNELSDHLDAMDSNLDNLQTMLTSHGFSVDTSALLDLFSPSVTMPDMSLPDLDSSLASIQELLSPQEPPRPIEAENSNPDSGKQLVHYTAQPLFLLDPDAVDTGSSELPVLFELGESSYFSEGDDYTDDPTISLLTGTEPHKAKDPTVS

Jurkat = test: antigen receptor-induced NF-kB inhibitors, dose response, Jurkat, luciferase reporter, luminescence, B- and T-cell (AID 489004); type: functional, cell-based; conditions: Homo sapiens;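 note: NF-kB luciferase reporter Jurkat cells stimulated with PMA plus ionomycin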
P388/ADR = test: cells; type: functional; conditions: Mus musculus
[11] = inhibitors of firefly luciferase expression or activity, dose response, H4 neuroglioma cells, luminescence (AID 1990); type: functional, cell-based
[12] = cytotoxicity in HEK-293T NF-kB-Luc cells, dose response, cytotoxicity control for B/T-cell NF-kB inhibitor project, cell-based, uHTS hits (AID 489019); type: functional;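 note: IC50 reflects cytotoxicity as loss of cell viability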
[13] = inhibitors of SNCA 5'UTR-driven reporter translation, confirmation, H4 neuroglioma cells, luminescence (AID 1988); type: functional, cell-based
P388 = test: cells; type: functional; conditions: Mus musculus
[14] = Luminescence Cell-Based Dose Response HTS to Identify Inhibitors of 5'UTR Stem-Loop Driven Prion Protein mRNA Translation in H4 Neuroglioblastoma Cells. [Related pubchem assays: 1827 (Project Summary), 1813 (Primary HTS)]; type: functional
SN12K1 = test: cells; type: functional; conditions: Homo sapiens

Chain of Phospholipase D2 (O14939 whole entry): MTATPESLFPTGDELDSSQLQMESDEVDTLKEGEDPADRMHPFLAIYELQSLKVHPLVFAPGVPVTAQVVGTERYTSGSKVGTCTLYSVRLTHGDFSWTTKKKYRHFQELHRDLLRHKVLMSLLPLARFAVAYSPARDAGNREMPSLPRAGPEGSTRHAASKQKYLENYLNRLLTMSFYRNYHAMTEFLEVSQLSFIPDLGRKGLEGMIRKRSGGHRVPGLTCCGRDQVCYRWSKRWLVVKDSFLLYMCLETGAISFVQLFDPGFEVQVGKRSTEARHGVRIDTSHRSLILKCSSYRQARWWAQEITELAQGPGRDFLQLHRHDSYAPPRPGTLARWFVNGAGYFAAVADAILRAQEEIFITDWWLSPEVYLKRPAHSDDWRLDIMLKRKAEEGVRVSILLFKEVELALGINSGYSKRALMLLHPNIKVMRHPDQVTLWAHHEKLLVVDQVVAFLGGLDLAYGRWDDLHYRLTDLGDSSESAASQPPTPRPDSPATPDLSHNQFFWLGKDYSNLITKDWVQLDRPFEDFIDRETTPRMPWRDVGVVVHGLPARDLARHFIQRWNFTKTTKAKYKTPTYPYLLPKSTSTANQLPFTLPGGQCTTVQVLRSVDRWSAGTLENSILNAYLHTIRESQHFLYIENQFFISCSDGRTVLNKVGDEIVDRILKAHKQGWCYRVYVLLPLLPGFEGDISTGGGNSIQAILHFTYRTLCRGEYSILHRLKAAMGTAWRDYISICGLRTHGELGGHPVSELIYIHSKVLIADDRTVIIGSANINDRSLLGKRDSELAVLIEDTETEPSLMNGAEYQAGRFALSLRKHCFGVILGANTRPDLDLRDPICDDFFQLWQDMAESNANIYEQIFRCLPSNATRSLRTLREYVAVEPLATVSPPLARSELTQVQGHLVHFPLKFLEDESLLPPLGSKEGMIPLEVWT
Chain of Phospholipase D1 (Q13393 whole entry): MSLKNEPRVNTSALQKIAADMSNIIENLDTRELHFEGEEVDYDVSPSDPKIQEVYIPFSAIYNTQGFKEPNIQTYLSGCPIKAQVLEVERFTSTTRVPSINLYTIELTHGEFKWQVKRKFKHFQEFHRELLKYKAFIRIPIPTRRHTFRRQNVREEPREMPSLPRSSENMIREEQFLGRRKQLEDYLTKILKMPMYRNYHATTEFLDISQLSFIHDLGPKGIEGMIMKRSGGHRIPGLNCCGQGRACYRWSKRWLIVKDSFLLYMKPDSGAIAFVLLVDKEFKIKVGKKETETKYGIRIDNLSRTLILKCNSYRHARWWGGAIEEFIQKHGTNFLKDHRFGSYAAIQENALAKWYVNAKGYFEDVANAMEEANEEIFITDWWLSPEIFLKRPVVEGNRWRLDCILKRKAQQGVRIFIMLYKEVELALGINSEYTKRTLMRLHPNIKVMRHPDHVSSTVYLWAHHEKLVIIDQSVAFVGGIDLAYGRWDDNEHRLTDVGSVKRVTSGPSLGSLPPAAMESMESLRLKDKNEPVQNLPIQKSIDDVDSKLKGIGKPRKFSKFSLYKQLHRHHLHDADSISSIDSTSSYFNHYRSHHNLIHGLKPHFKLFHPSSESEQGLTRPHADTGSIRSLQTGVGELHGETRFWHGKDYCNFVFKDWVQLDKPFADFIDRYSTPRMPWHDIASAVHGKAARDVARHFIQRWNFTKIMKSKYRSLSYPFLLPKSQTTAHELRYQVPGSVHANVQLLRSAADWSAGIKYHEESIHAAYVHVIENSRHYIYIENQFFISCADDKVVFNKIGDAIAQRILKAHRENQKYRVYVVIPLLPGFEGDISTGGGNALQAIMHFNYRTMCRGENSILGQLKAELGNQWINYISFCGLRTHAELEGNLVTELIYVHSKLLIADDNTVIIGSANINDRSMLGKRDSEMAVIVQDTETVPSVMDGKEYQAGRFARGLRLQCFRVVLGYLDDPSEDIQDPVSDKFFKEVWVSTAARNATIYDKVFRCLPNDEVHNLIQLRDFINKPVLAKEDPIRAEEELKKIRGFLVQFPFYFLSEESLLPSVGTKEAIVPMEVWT
Chain of Dual specificity protein kinase CLK1 (P49759 whole entry): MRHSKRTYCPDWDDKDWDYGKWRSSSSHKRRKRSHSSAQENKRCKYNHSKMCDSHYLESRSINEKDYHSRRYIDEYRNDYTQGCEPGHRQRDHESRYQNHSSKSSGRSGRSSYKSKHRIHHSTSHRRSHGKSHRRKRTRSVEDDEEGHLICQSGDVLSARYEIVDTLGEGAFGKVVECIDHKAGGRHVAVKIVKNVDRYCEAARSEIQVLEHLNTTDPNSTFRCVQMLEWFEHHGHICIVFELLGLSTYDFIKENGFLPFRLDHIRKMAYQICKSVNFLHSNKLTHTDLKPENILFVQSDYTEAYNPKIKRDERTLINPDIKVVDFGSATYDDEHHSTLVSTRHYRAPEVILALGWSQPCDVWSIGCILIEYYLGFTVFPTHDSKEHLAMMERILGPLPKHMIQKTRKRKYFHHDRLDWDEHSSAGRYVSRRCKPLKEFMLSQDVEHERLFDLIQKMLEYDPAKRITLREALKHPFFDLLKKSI

Question: What does the source list for O=c1c2ccccc2oc2cc(-c3ccc4[nH]ccc4c3)ccc12?
Answer: AC50 [1]: 0.255 µM (active); IC50 [2]: 6.96 µM (active); IC50 [3]: 48.8 µM (inactive); IC50 (CHO-K1): > 66.3 µM (inactive); IC50 (Orexin receptor type 2 [4]): 40 µM (inactive); IC50 (Orexin receptor type 2 [5]): > 50 µM (inactive); AC50 [6]: 0.29 µM (inconclusive); IC50 [7]: 2.71 µM (active); EC50 [8]: 8.57 µM (active); EC50 (Streptococcus): > 150 µM (not active); EC50 (Streptokinase A): > 150 µM (not active)

Question: For Clc1cc(Cl)cc(CNc2ncncc2-c2ccc3c(c2)OCO3)c1, which AC50 [9] is on record?
Answer: The AC50 was 0.0305 µM (active).

Question: For O=C(NCCN1CCC2(CC1)C(=O)NCN2c1ccc(Br)cc1)c1cnc2ccccc2c1, which IC50 (Phospholipase D2) is on record?
Answer: The IC50 was 0.13 µM (active).

Question: And the IC50 (Phospholipase D1)?
Answer: Its IC50 is 3.04 µM (active).

Question: For Nc1nc(Cl)nc2c1ncn2C1CC(O)C(CO)O1 (stereo not drawn), which EC50 [10] is on record?
Answer: Its EC50 is 79.9 µM (active).

Question: What about the IC50 (Jurkat) of the same compound?
Answer: The IC50 was 2.36 µM (active).

Question: What about the GI50 (P388/ADR) of the same compound?
Answer: Its GI50 is 0.0535 µM (active).

Question: What about the EC50 [11] of the same compound?
Answer: The EC50 was 0.544 µM (active).

Question: What about the IC50 [12] of the same compound?
Answer: Its IC50 is > 80 µM (inactive).

Question: What about the EC50 [13] of the same compound?
Answer: The EC50 was 0.567 µM (active).

Question: What about the GI50 (P388) of the same compound?
Answer: Its GI50 is 0.0428 µM (active).

Question: What about the EC50 [14] of the same compound?
Answer: The EC50 was 3.61 µM (active).

Question: What about the GI50 (SN12K1) of the same compound?
Answer: The GI50 was 0.695 µM (active).
